# Experimental data from PubChem BioAssay AID1963971 (Molecular Pharmacology Branch, DTP, NCI, 2024).
# Test system: 953936-095-R-J2-PDC spheroids with HUVEC/MSC, viability
# Assay: Anticancer human tumor 953936-095-R-J2-PDC patient-derived cervical squamous cell carcinoma cell line growth inhibition [PI3K]
# Conditions: for IC50: curve of first compound; for viability, T/C: stronger effect = lower value
# Procedure, shortened: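 Targeted small molecules plus PI3K inhibitors, half-log dose series from Cmax (default top 10 microM), were applied to heterotypic spheroids of cancer cells with HUVEC and MSCs. Viability indicated growth inhibition.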
# [1] = second compound 0.00316 µM, first compound 0.0316 µM
# [2] = second compound 0.00316 µM, first compound 0.1 µM
# [3] = second compound 0.00316 µM, first compound 0.316 µM
# [4] = second compound 0.00316 µM, first compound 1 µM
# [5] = second compound 0.00316 µM, first compound 3.16 µM
# [6] = second compound 0.00316 µM, first compound 10 µM
# [7] = second compound 0.01 µM, first compound 0.0316 µM
# [8] = second compound 0.01 µM, first compound 0.1 µM
# [9] = second compound 0.01 µM, first compound 0.316 µM
# [10] = second compound 0.01 µM, first compound 1 µM
# [11] = second compound 0.01 µM, first compound 3.16 µM
# [12] = second compound 0.01 µM, first compound 10 µM
# [13] = second compound 0.0316 µM, first compound 0.0316 µM
# [14] = second compound 0.0316 µM, first compound 0.1 µM
# [15] = second compound 0.0316 µM, first compound 0.316 µM
# [16] = second compound 0.0316 µM, first compound 1 µM
# [17] = second compound 0.0316 µM, first compound 3.16 µM
# [18] = second compound 0.0316 µM, first compound 10 µM
# [19] = second compound 0.1 µM, first compound 0.0316 µM
# [20] = second compound 0.1 µM, first compound 0.1 µM
# [21] = second compound 0.1 µM, first compound 0.316 µM
# [22] = second compound 0.1 µM, first compound 1 µM
# [23] = second compound 0.1 µM, first compound 3.16 µM
# [24] = second compound 0.1 µM, first compound 10 µM
# [25] = second compound 0.316 µM, first compound 0.0316 µM
# [26] = second compound 0.316 µM, first compound 0.1 µM
# [27] = second compound 0.316 µM, first compound 0.316 µM
# [28] = second compound 0.316 µM, first compound 1 µM
# [29] = second compound 0.316 µM, first compound 3.16 µM
# [30] = second compound 0.316 µM, first compound 10 µM
# [31] = second compound 1 µM, first compound 0.0316 µM
# [32] = second compound 1 µM, first compound 0.1 µM
# [33] = second compound 1 µM, first compound 0.316 µM
# [34] = second compound 1 µM, first compound 1 µM
# [35] = second compound 1 µM, first compound 3.16 µM
# [36] = second compound 1 µM, first compound 10 µM
# 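Further: spheroids exposed to compounds for seven days before read-out.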
compound,measurement,setting,value
CC(C)NCC(C(=O)N1CCN(c2ncnc3c2C(C)CC3O)CC1)c1ccc(Cl)cc1 (stereo not drawn) + CC(Nc1ccc2c(c1)OCCn1cc(N3C(=O)OCC3C(F)F)nc1-2)C(N)=O,IC50,second compound 0.00316 µM,890 nM
same,IC50,second compound 0.01 µM,865 nM
same,IC50,second compound 0.0316 µM,640 nM
same,IC50,second compound 0.1 µM,176 nM
same,IC50,second compound 0.316 µM,< 31.6 nM
same,IC50,second compound 1 µM,< 31.6 nM
same,"viability, T/C",[1],89.5%
same,"viability, T/C",[2],88.2%
same,"viability, T/C",[3],73.9%
same,"viability, T/C",[4],48%
same,"viability, T/C",[5],22.5%
same,"viability, T/C",[6],15.1%
same,"viability, T/C",[7],87%
same,"viability, T/C",[8],86.1%
same,"viability, T/C",[9],71.3%
same,"viability, T/C",[10],48.3%
same,"viability, T/C",[11],20.9%
same,"viability, T/C",[12],14.1%
same,"viability, T/C",[13],79.1%
same,"viability, T/C",[14],76%
same,"viability, T/C",[15],63.5%
same,"viability, T/C",[16],42%
same,"viability, T/C",[17],18.4%
same,"viability, T/C",[18],11.4%
same,"viability, T/C",[19],57.2%
same,"viability, T/C",[20],55%
same,"viability, T/C",[21],45.5%
same,"viability, T/C",[22],31.2%
same,"viability, T/C",[23],18.6%
same,"viability, T/C",[24],9.8%
same,"viability, T/C",[25],35.8%
same,"viability, T/C",[26],33.9%
same,"viability, T/C",[27],30.6%
same,"viability, T/C",[28],23.6%
same,"viability, T/C",[29],13%
same,"viability, T/C",[30],9.25%
same,"viability, T/C",[31],23%
same,"viability, T/C",[32],22.3%
same,"viability, T/C",[33],19.3%
same,"viability, T/C",[34],15.4%
same,"viability, T/C",[35],14%
same,"viability, T/C",[36],7.62%
CC1(C)CCC(CN2CCN(c3ccc(C(=O)NS(=O)(=O)c4ccc(NCC5CCOCC5)c([N+](=O)[O-])c4)c(Oc4cnc5[nH]ccc5c4)c3)CC2)=C(c2ccc(Cl)cc2)C1 + Cc1nc(NC(=O)N2CCCC2C(N)=O)sc1-c1ccnc(C(C)(C)C(F)(F)F)c1,IC50,second compound 0.0316 µM,6770 nM
same,IC50,second compound 0.1 µM,7010 nM
same,IC50,second compound 0.316 µM,5150 nM
same,IC50,second compound 1 µM,< 31.6 nM
same,IC50,second compound 3.16 µM,< 31.6 nM
same,IC50,second compound 10 µM,< 31.6 nM
same,"viability, T/C",[13],88.8%
same,"viability, T/C",[14],96.5%
same,"viability, T/C",[15],97.6%
same,"viability, T/C",[16],100%
same,"viability, T/C",[17],109%
same,"viability, T/C",[18],25.2%
same,"viability, T/C",[19],90.7%
same,"viability, T/C",[20],82.5%
same,"viability, T/C",[21],82.7%
same,"viability, T/C",[22],85.7%
same,"viability, T/C",[23],96%
same,"viability, T/C",[24],33.5%
same,"viability, T/C",[25],65.3%
same,"viability, T/C",[26],64.1%
same,"viability, T/C",[27],61.1%
same,"viability, T/C",[28],63.4%
same,"viability, T/C",[29],67.8%
same,"viability, T/C",[30],30.5%
same,"viability, T/C",[31],52.5%
same,"viability, T/C",[32],47.6%
same,"viability, T/C",[33],41.2%
same,"viability, T/C",[34],40.5%
same,"viability, T/C",[35],40%
same,"viability, T/C",[36],19.3%
same,"viability, T/C","second compound 3.16 µM, first compound 0.0316 µM",27.4%
same,"viability, T/C","second compound 3.16 µM, first compound 0.1 µM",27.2%
same,"viability, T/C","second compound 3.16 µM, first compound 0.316 µM",25.6%
same,"viability, T/C","second compound 3.16 µM, first compound 1 µM",26.3%
same,"viability, T/C","second compound 3.16 µM, first compound 3.16 µM",22.3%
same,"viability, T/C","second compound 3.16 µM, first compound 10 µM",20.4%
same,"viability, T/C","second compound 10 µM, first compound 0.0316 µM",11.4%
same,"viability, T/C","second compound 10 µM, first compound 0.1 µM",10.8%
same,"viability, T/C","second compound 10 µM, first compound 0.316 µM",10.2%
same,"viability, T/C","second compound 10 µM, first compound 1 µM",11.8%
same,"viability, T/C","second compound 10 µM, first compound 3.16 µM",12.4%
same,"viability, T/C","second compound 10 µM, first compound 10 µM",8.8%
Cn1cnc2c(F)c(Nc3ccc(Br)cc3Cl)c(C(=O)NOCCO)cc21 + Cc1nc(NC(=O)N2CCCC2C(N)=O)sc1-c1ccnc(C(C)(C)C(F)(F)F)c1,IC50,second compound 0.0316 µM,748 nM
same,IC50,second compound 0.1 µM,308 nM
same,IC50,second compound 0.316 µM,36.8 nM
same,IC50,second compound 1 µM,< 9.49 nM
same,IC50,second compound 3.16 µM,< 9.49 nM
same,IC50,second compound 10 µM,< 9.49 nM
same,"viability, T/C","second compound 0.0316 µM, first compound 0.00949 µM",85.7%
same,"viability, T/C","second compound 0.0316 µM, first compound 0.03 µM",87.1%
same,"viability, T/C","second compound 0.0316 µM, first compound 0.0949 µM",74.3%
same,"viability, T/C","second compound 0.0316 µM, first compound 0.3 µM",59.4%
same,"viability, T/C","second compound 0.0316 µM, first compound 0.949 µM",49.5%
same,"viability, T/C","second compound 0.0316 µM, first compound 3 µM",31.9%
same,"viability, T/C","second compound 0.1 µM, first compound 0.00949 µM",78.1%
same,"viability, T/C","second compound 0.1 µM, first compound 0.03 µM",70.1%
same,"viability, T/C","second compound 0.1 µM, first compound 0.0949 µM",52.7%
same,"viability, T/C","second compound 0.1 µM, first compound 0.3 µM",51.4%
same,"viability, T/C","second compound 0.1 µM, first compound 0.949 µM",47.4%
same,"viability, T/C","second compound 0.1 µM, first compound 3 µM",28.9%
same,"viability, T/C","second compound 0.316 µM, first compound 0.00949 µM",61.3%
same,"viability, T/C","second compound 0.316 µM, first compound 0.03 µM",50.8%
same,"viability, T/C","second compound 0.316 µM, first compound 0.0949 µM",43%
same,"viability, T/C","second compound 0.316 µM, first compound 0.3 µM",33.9%
same,"viability, T/C","second compound 0.316 µM, first compound 0.949 µM",26.1%
same,"viability, T/C","second compound 0.316 µM, first compound 3 µM",20.1%
same,"viability, T/C","second compound 1 µM, first compound 0.00949 µM",44%
same,"viability, T/C","second compound 1 µM, first compound 0.03 µM",35%
same,"viability, T/C","second compound 1 µM, first compound 0.0949 µM",24.9%
same,"viability, T/C","second compound 1 µM, first compound 0.3 µM",24.3%
same,"viability, T/C","second compound 1 µM, first compound 0.949 µM",12.1%
same,"viability, T/C","second compound 1 µM, first compound 3 µM",7.18%
same,"viability, T/C","second compound 3.16 µM, first compound 0.00949 µM",21.1%
same,"viability, T/C","second compound 3.16 µM, first compound 0.03 µM",15.3%
same,"viability, T/C","second compound 3.16 µM, first compound 0.0949 µM",11.3%
same,"viability, T/C","second compound 3.16 µM, first compound 0.3 µM",7.62%
same,"viability, T/C","second compound 3.16 µM, first compound 0.949 µM",5.36%
same,"viability, T/C","second compound 3.16 µM, first compound 3 µM",1.67%
same,"viability, T/C","second compound 10 µM, first compound 0.00949 µM",6.2%
same,"viability, T/C","second compound 10 µM, first compound 0.03 µM",5.44%
same,"viability, T/C","second compound 10 µM, first compound 0.0949 µM",4.18%
same,"viability, T/C","second compound 10 µM, first compound 0.3 µM",2.71%
same,"viability, T/C","second compound 10 µM, first compound 0.949 µM",1.25%
same,"viability, T/C","second compound 10 µM, first compound 3 µM",0.42%
CC1(C)CCC(CN2CCN(c3ccc(C(=O)NS(=O)(=O)c4ccc(NCC5CCOCC5)c([N+](=O)[O-])c4)c(Oc4cnc5[nH]ccc5c4)c3)CC2)=C(c2ccc(Cl)cc2)C1 + COc1c(OCCCN2CCOCC2)ccc2c3n(c(=NC(=O)c4cnc(N)nc4)nc12)CCN3,IC50,second compound 0.00316 µM,7150 nM
same,IC50,second compound 0.01 µM,5430 nM
same,IC50,second compound 0.0316 µM,< 31.6 nM
same,IC50,second compound 0.1 µM,< 31.6 nM
same,IC50,second compound 0.316 µM,< 31.6 nM
same,IC50,second compound 1 µM,< 31.6 nM
same,"viability, T/C",[1],82%
same,"viability, T/C",[2],84.2%
same,"viability, T/C",[3],93.8%
same,"viability, T/C",[4],96.2%
same,"viability, T/C",[5],97.5%
same,"viability, T/C",[6],33.2%
same,"viability, T/C",[7],69.6%
same,"viability, T/C",[8],78.1%
same,"viability, T/C",[9],68%
same,"viability, T/C",[10],74.7%
same,"viability, T/C",[11],70.5%
same,"viability, T/C",[12],26.6%
same,"viability, T/C",[13],42%
same,"viability, T/C",[14],50%
same,"viability, T/C",[15],41.5%
same,"viability, T/C",[16],40.1%
same,"viability, T/C",[17],44.1%
same,"viability, T/C",[18],21.6%
same,"viability, T/C",[19],18.2%
same,"viability, T/C",[20],17.8%
same,"viability, T/C",[21],18.3%
same,"viability, T/C",[22],17.1%
same,"viability, T/C",[23],15.6%
same,"viability, T/C",[24],6.6%
same,"viability, T/C",[25],6.6%
same,"viability, T/C",[26],7.22%
same,"viability, T/C",[27],7.33%
same,"viability, T/C",[28],5.61%
same,"viability, T/C",[29],5.63%
same,"viability, T/C",[30],3.88%
same,"viability, T/C",[31],1.61%
same,"viability, T/C",[32],1.39%
same,"viability, T/C",[33],1.49%
same,"viability, T/C",[34],1.3%
same,"viability, T/C",[35],1.52%
same,"viability, T/C",[36],0.86%
